Results from US20040029965A1, “Formulations for reducing or eliminating toxicity of enviromental hormones containing ursodeoxycholic acid” (priority 2000, published 2004).

Test system: C57B1/6J mice
Assay: Organ weights (liver, kidneys, testes, epididymides) of mice after a single subcutaneous injection of TCDD
Format: in vivo
Procedure: Male C57B1/6J mice of 5 weeks old having the average weight of 18-22 g which had been bred in CRJ (Charles River in Japan) were purchased and used in this example as experimental animals. Those mice were acclimated under the constant breeding condition, i.e. the temperature of 24±1° C., the humidity of 60±10% and the light and darkness cycle of 12 hours, for one week and thereafter, utilized in the experiment.
2,3,7,8-tetrachlorodibenzo-p-dioxin (TCDD) dissolved in toluene (purity of 95% or more as a result of gas chromatography analysis), manufactured by Chem. Services Inc. in USA, was volatilized with nitrogen to obtain powder. The obtained powder was dissolved in a mixed solvent containing acetone and corn oil with a volume ratio of 1:6. The resulting solution each containing 110, 27.5 and 6.9 μg/kg of TCDD was subcutaneously injected to mice at a volume of 5 ml per body weight. […] The mice were supplied with the feed from 10 days before (pre-administration) to 60 days after administration of TCDD (post-administration).
Upon completion of the experiment for 60 days, the experimental animals were fasted for 24 hours and anesthetized with ether. Then, they were abdominally incised and blood was gathered from abdominal vena cava. They were sacrificed by the release of blood. Liver, kidneys, testes and epididymides were extracted and all the extracted organs were weighed. Only the testes were separately kept and observed under optical and electron microscopes. For biochemical finding test, serum was separated from blood with a centrifuge and the separated serum was analyzed with an automated blood biochemical analyzer, Dimension (Dupont, USA). Blood was put to another blood gathering bottle and then, analyzed with an automated blood cell analyzer, Celldyn (Abbott, USA).
The results are expressed as Mean±Standard Deviation values. For statistical analysis of the body weight, feed and water uptake, biochemical findings, hematological findings and the weight of organ in an acute toxicity test, verification was performed by one way analysis of variance (ANOVA) in case of equal distribution. In case significance was recognized in ANOVA, the Student's t-test was performed in the levels of p<0.05 and p<0.01.
The organs, i.e. liver, kidneys, testes and epididymides, were weighed and the results are shown in the following.

[1] = TCDD 6.9 μg/kg + UDCA 0.125 wt %
[2] = TCDD 6.9 μg/kg + UDCA 0.25 wt %
[3] = TCDD 27.5 μg/kg + UDCA 0.125 wt %
[4] = TCDD 27.5 μg/kg + UDCA 0.25 wt %
[5] = TCDD 27.5 μg/kg + UDCA 0.5 wt %
[6] = TCDD 110.0 μg/kg + UDCA 0.125 wt %
[7] = TCDD 110.0 μg/kg + UDCA 0.25 wt %
[8] = TCDD 110.0 μg/kg + UDCA 0.5 wt %

SMILES: Clc1cc2c(cc1Cl)Oc1cc(Cl)c(Cl)cc1O2 [TCDD, 2,3,7,8-tetrachlorodibenzo-p-dioxin]
- Left epididymis Relative weight (TCDD 6.9 μg/kg alone): 0.101 ± 0.012%
- Left epididymis Weight (TCDD 6.9 μg/kg alone): 0.023 ± 0.005 g
- Left kidney Relative weight (TCDD 6.9 μg/kg alone): 0.508 ± 0.050%
- Left kidney Weight (TCDD 6.9 μg/kg alone): 0.115 ± 0.018 g
- Left testis Relative weight (TCDD 6.9 μg/kg alone): 0.296 ± 0.030%
- Left testis Weight (TCDD 6.9 μg/kg alone): 0.067 ± 0.011 g
- Liver Relative weight (TCDD 6.9 μg/kg alone): 4.092%
- Liver Weight (TCDD 6.9 μg/kg alone): 0.935 ± 0.173 g
- Right epididymis Relative weight (TCDD 6.9 μg/kg alone): 0.110 ± 0.027%
- Right epididymis Weight (TCDD 6.9 μg/kg alone): 0.025 ± 0.007 g
- Right kidney Relative weight (TCDD 6.9 μg/kg alone): 0.513 ± 0.066%
- Right kidney Weight (TCDD 6.9 μg/kg alone): 0.117 ± 0.022 g
- Right testis Relative weight (TCDD 6.9 μg/kg alone): 0.285 ± 0.035%
- Right testis Weight (TCDD 6.9 μg/kg alone): 0.65 ± 0.010 g
- Left epididymis Relative weight (TCDD 27.5 μg/kg alone): 0.124 ± 0.024 %
- Left epididymis Weight (TCDD 27.5 μg/kg alone): 0.021 ± 0.006 g
- Left kidney Relative weight (TCDD 27.5 μg/kg alone): 0.625 ± 0.037 %
- Left kidney Weight (TCDD 27.5 μg/kg alone): 0.101 ± 0.012 g
- Left testis Relative weight (TCDD 27.5 μg/kg alone): 0.356 ± 0.051 %
- Left testis Weight (TCDD 27.5 μg/kg alone): 0.058 ± 0.014 g
- Liver Relative weight (TCDD 27.5 μg/kg alone): 4.506%
- Liver Weight (TCDD 27.5 μg/kg alone): 0.734 ± 0.151 g
- Right epididymis Relative weight (TCDD 27.5 μg/kg alone): 0.129 ± 0.027 %
- Right epididymis Weight (TCDD 27.5 μg/kg alone): 0.021 ± 0.006 g
- Right kidney Relative weight (TCDD 27.5 μg/kg alone): 0.571 ± 0.030 %
- Right kidney Weight (TCDD 27.5 μg/kg alone): 0.092 ± 0.012 g
- Right testis Relative weight (TCDD 27.5 μg/kg alone): 0.352 ± 0.059 %
- Right testis Weight (TCDD 27.5 μg/kg alone): 0.058 ± 0.015 g

SMILES: C[C@H](CCC(=O)O)[C@H]1CC[C@H]2[C@@H]3[C@@H](O)C[C@@H]4C[C@H](O)CC[C@]4(C)[C@H]3CC[C@]12C [UDCA, 3α, 7β-dihydroxy-5β-cholanoic acid]
- Left epididymis Relative weight [1]: 0.121 ± 0.011 %
- Left epididymis Weight [1]: 0.029 ± 0.003 g
- Left kidney Relative weight [1]: 0.480 ± 0.050%
- Left kidney Weight [1]: 0.116 ± 0.014 g
- Left testis Relative weight [1]: 0.297 ± 0.020%
- Left testis Weight [1]: 0.072 ± 0.006 g
- Liver Relative weight [1]: 4.069 ± 0.167%
- Liver Weight [1]: 0.980 ± 0.073 g
- Right epididymis Relative weight [1]: 0.121 ± 0.014%
- Right epididymis Weight [1]: 0.029 ± 0.003 g
- Right kidney Relative weight [1]: 0.511 ± 0.049%
- Right kidney Weight [1]: 0.123 ± 0.008 g
- Right testis Relative weight [1]: 0.304 ± 0.020%
- Right testis Weight [1]: 0.073 ± 0.007 g
- Left epididymis Relative weight [2]: 0.121 ± 0.011 %
- Left epididymis Weight [2]: 0.030 ± 0.003 g
- Left kidney Relative weight [2]: 0.484 ± 0.036%
- Left kidney Weight [2]: 0.119 ± 0.009 g
- Left testis Relative weight [2]: 0.287 ± 0.036%
- Left testis Weight [2]: 0.071 ± 0.008 g
- Liver Relative weight [2]: 3.870 ± 0.289%
- Liver Weight [2]: 0.954 ± 0.057 g
- Right epididymis Relative weight [2]: 0.115 ± 0.009%
- Right epididymis Weight [2]: 0.029 ± 0.002 g
- Right kidney Relative weight [2]: 0.500 ± 0.048%
- Right kidney Weight [2]: 0.123 ± 0.013 g
- Right testis Relative weight [2]: 0.290 ± 0.030%
- Right testis Weight [2]: 0.072 ± 0.008 g
- Left epididymis Relative weight (TCDD 6.9 μg/kg + UDCA 0.5 wt %): 0.121 ± 0.010 %
- Left epididymis Weight (TCDD 6.9 μg/kg + UDCA 0.5 wt %): 0.029 ± 0.003 g
- Left kidney Relative weight (TCDD 6.9 μg/kg + UDCA 0.5 wt %): 0.500 ± 0.025%
- Left kidney Weight (TCDD 6.9 μg/kg + UDCA 0.5 wt %): 0.121 ± 0.007 g
- Left testis Relative weight (TCDD 6.9 μg/kg + UDCA 0.5 wt %): 0.310 ± 0.050%
- Left testis Weight (TCDD 6.9 μg/kg + UDCA 0.5 wt %): 0.075 ± 0.010 g
- Liver Relative weight (TCDD 6.9 μg/kg + UDCA 0.5 wt %): 4.258 ± 0.327%
- Liver Weight (TCDD 6.9 μg/kg + UDCA 0.5 wt %): 1.028 ± 0.073 g
- Right epididymis Relative weight (TCDD 6.9 μg/kg + UDCA 0.5 wt %): 0.114 ± 0.015%
- Right epididymis Weight (TCDD 6.9 μg/kg + UDCA 0.5 wt %): 0.027 ± 0.004 g
- Right kidney Relative weight (TCDD 6.9 μg/kg + UDCA 0.5 wt %): 0.516 ± 0.043%
- Right kidney Weight (TCDD 6.9 μg/kg + UDCA 0.5 wt %): 0.125 ± 0.009 g
- Right testis Relative weight (TCDD 6.9 μg/kg + UDCA 0.5 wt %): 0.307 ± 0.031%
- Right testis Weight (TCDD 6.9 μg/kg + UDCA 0.5 wt %): 0.074 ± 0.007 g
- Left epididymis Relative weight [3]: 0.112 ± 0.017%
- Left epididymis Weight [3]: 0.027 ± 0.003 g
- Left kidney Relative weight [3]: 0.517 ± 0.056 %
- Left kidney Weight [3]: 0.127 ± 0.012 g
- Left testis Relative weight [3]: 0.284 ± 0.025 %
- Left testis Weight [3]: 0.070 ± 0.005 g
- Liver Relative weight [3]: 4.832 ± 0.327%
- Liver Weight [3]: 1.187 ± 0.086 g
- Right epididymis Relative weight [3]: 0.105 ± 0.015 %
- Right epididymis Weight [3]: 0.026 ± 0.003 g
- Right kidney Relative weight [3]: 0.489 ± 0.055 %
- Right kidney Weight [3]: 0.120 ± 0.013 g
- Right testis Relative weight [3]: 0.285 ± 0.016 %
- Right testis Weight [3]: 0.070 ± 0.003 g
- Left epididymis Relative weight [4]: 0.120 ± 0.018%
- Left epididymis Weight [4]: 0.029 ± 0.003 g
- Left kidney Relative weight [4]: 0.508 ± 0.038 %
- Left kidney Weight [4]: 0.125 ± 0.010 g
- Left testis Relative weight [4]: 0.293 ± 0.032 %
- Left testis Weight [4]: 0.072 ± 0.007 g
- Liver Relative weight [4]: 4.428 ± 0.198%
- Liver Weight [4]: 1.088 ± 0.030 g
- Right epididymis Relative weight [4]: 0.124 ± 0.020%
- Right epididymis Weight [4]: 0.030 ± 0.005 g
- Right kidney Relative weight [4]: 0.508 ± 0.029 %
- Right kidney Weight [4]: 0.125 ± 0.007 g
- Right testis Relative weight [4]: 0.290 ± 0.030 %
- Right testis Weight [4]: 0.071 ± 0.007 g
- Left epididymis Relative weight [5]: 0.115 ± 0.015%
- Left epididymis Weight [5]: 0.025 ± 0.004 g
- Left kidney Relative weight [5]: 0.539 ± 0.040 %
- Left kidney Weight [5]: 0.119 ± 0.011 g
- Left testis Relative weight [5]: 0.304 ± 0.040 %
- Left testis Weight [5]: 0.067 ± 0.011 g
- Liver Relative weight [5]: 4.773 ± 0.250%
- Liver Weight [5]: 1.057 ± 0.069 g
- Right epididymis Relative weight [5]: 0.132 ± 0.041%
- Right epididymis Weight [5]: 0.029 ± 0.011 g
- Right kidney Relative weight [5]: 0.538 ± 0.045 %
- Right kidney Weight [5]: 0.119 ± 0.009 g
- Right testis Relative weight [5]: 0.301 ± 0.030 %
- Right testis Weight [5]: 0.067 ± 0.007 g
- Liver Relative weight [6]: 5.118%
- Liver Weight [6]: 0.8153 g
- Left epididymis Relative weight [7]: 0.122%
- Left epididymis Weight [7]: 0.0195 g
- Left kidney Relative weight [7]: 0.6711%
- Left kidney Weight [7]: 0.1069 g
- Left testis Relative weight [7]: 0.2153%
- Left testis Weight [7]: 0.343 g
- Liver Relative weight [7]: 8.600 ± 3.276%
- Liver Weight [7]: 1.379 ± 0.327 g
- Right epididymis Relative weight [7]: 0.080%
- Right epididymis Weight [7]: 0.0128 g
- Right kidney Relative weight [7]: 0.6045%
- Right kidney Weight [7]: 0.0963 g
- Right testis Relative weight [7]: 0.2279%
- Left epididymis Relative weight [8]: 0.114 ± 0.025%
- Left epididymis Weight [8]: 0.021 ± 0.007 g
- Left kidney Relative weight [8]: 0.704 ± 0.199%
- Left kidney Weight [8]: 0.121 ± 0.022 g
- Left testis Relative weight [8]: 0.316 ± 0.074%
- Left testis Weight [8]: 0.057 ± 0.019 g
- Right epididymis Relative weight [8]: 0.127 ± 0.024%
- Right epididymis Weight [8]: 0.024 ± 0.009 g
- Right kidney Relative weight [8]: 0.659 ± 0.133%
- Right kidney Weight [8]: 0.113 ± 0.010 g
- Right testis Relative weight [8]: 0.314 ± 0.067%
- Right testis Weight [8]: 0.057 ± 0.019 g
